Data from patent publication US20240270762A1, “PENICILLIN-BINDING PROTEIN INHIBITORS” (priority 2021, published 2024).
≈ marks a conversion by molar mass, not a printed value.

Key:
[1] = target: T1, A. baumannii PBP1a (Acinetobacter baumannii, UniProt A0ABX6CK30); assay: Bocillin-FL competition binding via gel filtration, A. baumannii PBP1a; conditions: competition binding assay using Bocillin-FL via gel filtration; read-out: A. baumannii PBP1a Potency
T1 sequence (A0ABX6CK30 1-851): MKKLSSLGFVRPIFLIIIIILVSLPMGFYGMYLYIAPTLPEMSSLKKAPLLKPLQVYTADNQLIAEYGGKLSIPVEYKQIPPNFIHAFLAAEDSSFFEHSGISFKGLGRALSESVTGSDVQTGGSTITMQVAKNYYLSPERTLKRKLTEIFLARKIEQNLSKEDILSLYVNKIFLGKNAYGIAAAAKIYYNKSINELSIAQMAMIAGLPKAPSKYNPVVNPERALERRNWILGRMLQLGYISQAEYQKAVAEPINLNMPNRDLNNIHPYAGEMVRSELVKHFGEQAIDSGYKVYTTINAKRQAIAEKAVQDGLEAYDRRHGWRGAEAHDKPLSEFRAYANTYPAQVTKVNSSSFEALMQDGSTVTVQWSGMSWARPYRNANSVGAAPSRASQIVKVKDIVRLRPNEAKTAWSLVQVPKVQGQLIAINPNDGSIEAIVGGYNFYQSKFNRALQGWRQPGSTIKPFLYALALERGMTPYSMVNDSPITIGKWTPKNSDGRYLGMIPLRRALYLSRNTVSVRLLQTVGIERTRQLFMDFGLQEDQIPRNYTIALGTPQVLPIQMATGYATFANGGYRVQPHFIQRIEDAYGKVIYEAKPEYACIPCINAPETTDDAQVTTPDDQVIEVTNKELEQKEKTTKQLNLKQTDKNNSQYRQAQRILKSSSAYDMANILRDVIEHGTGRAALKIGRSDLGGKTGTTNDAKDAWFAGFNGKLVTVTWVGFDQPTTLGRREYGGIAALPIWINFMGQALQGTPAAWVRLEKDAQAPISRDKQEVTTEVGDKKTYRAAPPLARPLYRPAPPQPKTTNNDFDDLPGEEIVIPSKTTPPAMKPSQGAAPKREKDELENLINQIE
In short: (§1)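 Enzyme was pre-incubated with rising inhibitor concentrations, then Bocillin-FL was added and incubated 15 minutes more. Bound probe was separated by gel filtration and fluorescence read. EC50 came from fitting fraction of PBP labelled versus inhibitor concentration to a Hill equation with ymin, ymax and n.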

[2] = target: A. baumannii PBP2 (Acinetobacter baumannii, UniProt D0C8Z9); assay: Bocillin-FL competition binding via gel filtration, A. baumannii PBP2
In short: as §1

[3] = system: P. aeruginosa ATCC 27853; assay: microbe, parasite or virus in culture; type: cell-based; conditions: Pseudomonas aeruginosa, ATCC27853, read-out: Minimum inhibitory concentration, P. aeruginosa ATCC 27853
[4] = system: A. baumannii ATCC 17978; assay: microbe, parasite or virus in culture; type: cell-based; conditions: Acinetobacter baumannii, ATCC17978, read-out: MIC, A. baumannii ATCC 17978
[5] = system: A. baumannii ATCC 19606; assay: microbe, parasite or virus in culture; type: cell-based; conditions: Acinetobacter baumannii, ATCC19606, read-out: MIC, A. baumannii ATCC 19606
[6] = system: P. aeruginosa ATCC 35151; assay: microbe, parasite or virus in culture; type: cell-based; conditions: Pseudomonas aeruginosa, ATCC35151, read-out: Minimum inhibitory concentration, P. aeruginosa ATCC 35151
[7] = system: A. baumannii 1258916; assay: microbe, parasite or virus in culture; type: cell-based, Acinetobacter baumannii; conditions: Acinetobacter baumannii, 1258916, read-out: MIC, A. baumannii 1258916
[8] = system: A. baumannii CDC-0033; assay: microbe, parasite or virus in culture; type: cell-based; conditions: Acinetobacter baumannii, CDC0033, read-out: MIC, A. baumannii CDC-0033
[9] = system: A. baumannii CDC-0036; assay: microbe, parasite or virus in culture; type: cell-based; conditions: Acinetobacter baumannii, CDC0036, read-out: MIC, A. baumannii CDC-0036
[10] = system: A. baumannii CDC-0045; assay: microbe, parasite or virus in culture; type: cell-based; conditions: Acinetobacter baumannii, CDC0045, read-out: MIC, A. baumannii CDC-0045
[11] = system: B. humptydooensis ATCC BAA-2767; assay: microbe, parasite or virus in culture; type: cell-based; conditions: Burkholderia humptydooensis, ATCCBAA2767, read-out: Minimum inhibitory concentration (MIC), B. humptydooensis ATCC BAA-2767
[12] = system: P. aeruginosa CDC-0110; assay: microbe, parasite or virus in culture; type: cell-based; conditions: Pseudomonas aeruginosa, CDC0110, read-out: Minimum inhibitory concentration, P. aeruginosa CDC-0110

Chain of A. baumannii PBP2 (D0C8Z9 whole entry): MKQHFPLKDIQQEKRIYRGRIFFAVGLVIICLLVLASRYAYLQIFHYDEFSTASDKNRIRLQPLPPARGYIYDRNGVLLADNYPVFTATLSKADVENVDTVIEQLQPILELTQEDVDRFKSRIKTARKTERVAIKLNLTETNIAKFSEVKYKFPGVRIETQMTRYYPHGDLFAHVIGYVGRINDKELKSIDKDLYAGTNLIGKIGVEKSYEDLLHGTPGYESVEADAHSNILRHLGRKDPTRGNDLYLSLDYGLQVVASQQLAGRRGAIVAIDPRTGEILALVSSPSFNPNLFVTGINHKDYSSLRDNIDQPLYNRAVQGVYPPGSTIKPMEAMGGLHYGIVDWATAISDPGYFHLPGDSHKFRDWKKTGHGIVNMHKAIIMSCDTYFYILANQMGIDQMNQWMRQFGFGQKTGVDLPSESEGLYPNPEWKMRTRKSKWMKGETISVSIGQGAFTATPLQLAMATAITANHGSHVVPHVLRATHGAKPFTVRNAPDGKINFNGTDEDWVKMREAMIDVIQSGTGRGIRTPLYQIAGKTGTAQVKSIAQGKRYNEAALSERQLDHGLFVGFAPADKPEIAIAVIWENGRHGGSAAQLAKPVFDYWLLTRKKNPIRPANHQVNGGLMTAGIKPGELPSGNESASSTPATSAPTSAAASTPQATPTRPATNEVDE

SMILES	EC50 [1]	EC50 [2]	MIC [3]	MIC [4]	MIC [5]	MIC [6]	MIC [7]	MIC [8]	MIC [9]	MIC [10]	MIC [11]	MIC [12]
O=C(O)c1c(F)ccc2c1OB(O)[C@@H](NC(=O)[C@H](NC(=O)N1CCN(C3CCN(C(=O)Nc4cccc(O)c4Cl)CC3)C1=O)c1cc(F)c(O)c(O)c1Cl)C2 [Example 447, (R)-3-((R)-2-(3-(1-((2-chloro-3-hydroxyphenyl)carbamoyl)piperidin-4-yl)-2-oxoimidazolidine-1-carboxamido)-2-(2-chloro-5-fluoro-3,4-dihydroxyphenyl)acetamido)-7-fluoro-2-hydroxy-3,4-dihydro-2H-benzo[e][1,2]oxaborinine-8-carboxylic acid]	< 10 µM	< 10 µM	< 1 µg/mL	< 1 µg/mL	< 1 µg/mL	< 1 µg/mL	< 1 µg/mL	< 1 µg/mL	< 1 µg/mL	< 1 µg/mL	< 1 µg/mL	< 1 µg/mL
O=C(O)c1c(F)ccc2c1OB(O)[C@@H](NC(=O)[C@H](NC(=O)N1CCN(C3CCN(C(=O)c4cccc(O)c4Cl)CC3)C1=O)c1cc(F)c(O)c(O)c1Cl)C2 (single isomer, unassigned) [Example 432]	< 10 µM	< 10 µM	< 1 µg/mL	< 1 µg/mL	< 1 µg/mL	< 1 µg/mL	< 1 µg/mL	2 to 4 µg/mL (≈ 2.52 to 5.05 µM)	2 to 4 µg/mL (≈ 2.52 to 5.05 µM)	< 1 µg/mL	< 1 µg/mL	< 1 µg/mL
O=C(O)c1c(F)ccc2c1OB(O)[C@@H](NC(=O)[C@H](NC(=O)N1CCN(Cc3ccc(O)c(O)c3Cl)C(=O)C1=O)c1cccc(P(=O)(O)O)c1)C2 (single isomer, unassigned) [Example 163]	< 10 µM	10 to 50 µM	< 1 µg/mL	< 1 µg/mL	< 1 µg/mL	< 1 µg/mL	< 1 µg/mL	< 1 µg/mL	< 1 µg/mL	< 1 µg/mL	< 1 µg/mL	< 1 µg/mL
O=C(O)c1c(F)ccc2c1OB(O)[C@@H](NC(=O)[C@H](NC(=O)N1CCN(C3CCN(C(=O)c4cc(O)ccc4F)CC3)C1=O)c1cc(F)c(O)c(O)c1Cl)C2 (single isomer, unassigned) [Example 433]	< 10 µM	< 10 µM	< 1 µg/mL	< 1 µg/mL	< 1 µg/mL	< 1 µg/mL	< 1 µg/mL	< 1 µg/mL	< 1 µg/mL	< 1 µg/mL	< 1 µg/mL	< 1 µg/mL
O=C(O)c1c(F)ccc2c1OB(O)[C@@H](NC(=O)[C@H](NC(=O)N1CCN(C3CCN(C(=O)Nc4c(F)ccc(O)c4F)CC3)C1=O)c1cc(F)c(O)c(O)c1Cl)C2 (single isomer, unassigned) [Example 454]	< 10 µM	< 10 µM	2 to 4 µg/mL (≈ 2.47 to 4.95 µM)	< 1 µg/mL	< 1 µg/mL	< 1 µg/mL	< 1 µg/mL	2 to 4 µg/mL (≈ 2.47 to 4.95 µM)	< 1 µg/mL	< 1 µg/mL	< 1 µg/mL	< 1 µg/mL
O=C(O)c1c(F)ccc2c1OB(O)[C@@H](NC(=O)C(NC(=O)N1CCN(C3CCN(C(=O)Nc4cc(O)cc(Cl)c4)CC3)C(=O)C1=O)c1cc(F)c(O)c(O)c1Cl)C2 (stereo partly drawn) [Example 484, (3R)-3-(2-(2-chloro-5-fluoro-3,4-dihydroxyphenyl)-2-(4-(1-((3-chloro-5-hydroxyphenyl)carbamoyl)piperidin-4-yl)-2,3-dioxopiperazine-1-carboxamido)acetamido)-7-fluoro-2-hydroxy-3,4-dihydro-2H-benzo[e][1,2]oxaborinine-8-carboxylic acid]	< 10 µM	< 10 µM	2 to 4 µg/mL (≈ 2.39 to 4.79 µM)	< 1 µg/mL	< 1 µg/mL	< 1 µg/mL	< 1 µg/mL	2 to 4 µg/mL (≈ 2.39 to 4.79 µM)	2 to 4 µg/mL (≈ 2.39 to 4.79 µM)	< 1 µg/mL	> 128 µg/mL	2 to 4 µg/mL (≈ 2.39 to 4.79 µM)
O=C(O)c1cccc2c1OB(O)[C@@H](NC(=O)C(NC(=O)N1CCN(Cc3cc(F)c(O)c(O)c3Cl)C(=O)C1=O)c1ccc(P(=O)(O)O)cc1)C2 (stereo partly drawn) [Example 164, (3R)-3-(2-(4-(2-chloro-5-fluoro-3,4-dihydroxybenzyl)-2,3-dioxopiperazine-1-carboxamido)-2-(4-phosphonophenyl)acetamido)-2-hydroxy-3,4-dihydro-2H-benzo[e][1,2]oxaborinine-8-carboxylic acid]	< 10 µM	< 10 µM	< 1 µg/mL	< 1 µg/mL	< 1 µg/mL	< 1 µg/mL	< 1 µg/mL	< 1 µg/mL	< 1 µg/mL	< 1 µg/mL	< 1 µg/mL	< 1 µg/mL
O=C(O)c1c(F)ccc2c1OB(O)[C@@H](NC(=O)[C@H](NC(=O)N1CCN(C3CCN(C(=O)Nc4cc(O)cc(F)c4)CC3)C1=O)c1cc(F)c(O)c(O)c1Cl)C2 (single isomer, unassigned) [Example 450]	< 10 µM	< 10 µM	< 1 µg/mL	< 1 µg/mL	< 1 µg/mL	< 1 µg/mL	< 1 µg/mL	< 1 µg/mL	< 1 µg/mL	< 1 µg/mL	8 to 16 µg/mL (≈ 10.1 to 20.2 µM)	< 1 µg/mL
O=C(NCCS(=O)(=O)N1CCN(C(=O)N[C@H](C(=O)N[C@H]2Cc3ccc(F)c(C(=O)O)c3OB2O)c2ccc(P(=O)(O)O)cc2)C1=O)c1ccc(O)c(O)c1Cl [Example 167, (R)-3-((S)-2-(3-((2-(2-chloro-3,4-dihydroxybenzamido)ethyl)sulfonyl)-2-oxoimidazolidine-1-carboxamido)-2-(4-phosphonophenyl)acetamido)-7-fluoro-2-hydroxy-3,4-dihydro-2H-benzo[e][1,2]oxaborinine-8-carboxylic acid]	50 to 250 µM	10 to 50 µM	> 128 µg/mL	32 to 64 µg/mL (≈ 38.7 to 77.3 µM)	> 128 µg/mL	32 to 64 µg/mL (≈ 38.7 to 77.3 µM)	> 128 µg/mL	> 128 µg/mL	> 128 µg/mL	> 128 µg/mL	> 128 µg/mL	> 128 µg/mL
O=C(O)c1c(F)ccc2c1OB(O)[C@@H](NC(=O)[C@H](NC(=O)N1CCN(C3CCN(C(=O)c4ccc(F)c(O)c4Cl)CC3)C1=O)c1cc(F)c(O)c(O)c1Cl)C2 [Example 438, (R)-3-((R)-2-(3-(1-(2-chloro-4-fluoro-3-hydroxybenzoyl)piperidin-4-yl)-2-oxoimidazolidine-1-carboxamido)-2-(2-chloro-5-fluoro-3,4-dihydroxyphenyl)acetamido)-7-fluoro-2-hydroxy-3,4-dihydro-2H-benzo[e][1,2]oxaborinine-8-carboxylic acid]	< 10 µM	< 10 µM	< 1 µg/mL	< 1 µg/mL	< 1 µg/mL	< 1 µg/mL	< 1 µg/mL	< 1 µg/mL	< 1 µg/mL	< 1 µg/mL	< 1 µg/mL	< 1 µg/mL
